From US7083969B2, “Serratia marcescens strain” (Korea Research Institute of Bioscience and Biotechnology, priority 1997, dated 2006)

Columns and labels:
[1] = Body weight of injected mice in graft versus host experiment (toxicity); type: in vivo
Description: (§1) A graft versus host reaction was utilized for the in vivo assay of prodigiosin's immunosuppression. The graft versus host reaction enables an assessment of the immune response of T lymphocytes. On the sixth day after transplantation of the T lymphocytes of BDF1 mice different in histocompatibility antigen, the lymphatic nodes were measured for weight, thereby assessing the immune response of T lymphocyte to the grafted heteroantigens. The prodigiosin was peritoneally injected at a dose of 30–100 mg per kg of body weight for five days while cyclophosphamide, as a positive control, was peritoneally injected at a dose of 100 mg/kg for five days. The body weights of the injected mice were measured to compare the toxicity of prodigiosin with that of cyclophosphamide. […] As for the body weight, it was not changed in the mice injected with prodigiosin at an effective concentration.

[2] = system: T lymphocytes; assay: T cell-dependent immune response in vivo (antibody producing cells after sheep red blood cell immunization); parameters: species or system mice; details: 100 mg/kg; 4 days after immunization
From the text: (§2) Germ-free test animals, mice BDF1 and B6C3F1, obtained from Genetic Resources Center, Korean Research Institute of Bioscience and Biotechnology in the Korean Institute of Science and Technology, were used for the assay of the immunosuppressive activity of prodigiosin. […] At such concentrations as show no cytotoxic effects, prodigiosin cannot suppress the immune response of B lymphocytes. […] This selective immunosuppression for T lymphocytes is not ascribed to the selective cytotoxicity for T lymphocytes. The same immunosuppression results as in the ex vivo experiments were obtained in in vivo experiments. When T lymphocyte activity was measured by use of a graft versus host reaction and a T cell-dependent antibody producing reaction, the prodigiosin suppressed the immune response, but exerted no toxicity on animals. Therefore, the immunosuppressive activity of the prodigiosin is thought to be attributed to the selective suppression for T lymphocyte activity.
(§3) A T cell-dependent immune response reaction was used to assess the influence of prodigiosin on T lymphocytes in vivo. Test animals were immunized with sheep red blood cells by peritoneal injection. 4 days after the immunization, the number of the antibody producing cells was counted. Prodigiosin was peritoneally injected everyday. Based on the number of the […] cells in the non-treated animals, the influence of prodigiosin on T lymphocytes in vivo was assessed as percentage. Also, the weight ratio of the spleen to the body was measured to assay the toxicity of prodigiosin to the animals. Cyclophosphamide was used as a positive control.

[3] = system: T lymphocytes; assay: Graft versus host reaction in vivo (lymphatic node weight); parameters: species or system BDF1 mice; details: 100 mg/kg peritoneally for five days; sixth day after transplantation
From the text: as §2, §1

[4] = Weight ratio of the spleen to the body (toxicity); type: in vivo, mice
Description: as §3

[5] = system: CD8 T lymphocytes; details: known; cited from earlier work
[6] = system: T lymphocytes; details: known; cited from earlier work

| Compound | Body weight ([1]; 100 mg/kg peritoneally for five days) [g] | body weight change ([1]; at an effective concentration) | Immune Response (%) [2] [%] | Wt. (mg) of Lymphatic node [3] [mg] | Wt. Ratio of spleen/body (%) ([4]; 100 mg/kg) | toxicity judged by weight ratio of the spleen to the body ([4]; at effective concentrations) | suppression of CD8 T lymphocytes [5] | proliferation of T lymphocytes [6] |
| --- | --- | --- | --- | --- | --- | --- | --- | --- |
| O=P1(N(CCCl)CCCl)NCCCO1 (centres unmarked) [Cyclophosphamide, reference compound] | 18 | loss of body weight | 7 | 0.06 | 26 | very toxic | – | – |
| CCCCCCCCCCCc1ccc(/C=C2\N=C(c3ccc[nH]3)C=C2OC)[nH]1 [Prodigiosin 25-C, prodigiosin 25-C] | – | – | – | – | – | – | suppressed | suppress |
